# System: T1, HassOR67/Orco (HassOR67/HassOrco; OR67)
# T1 construct: full-length ORF from antennal cDNA in pT7Ts; cRNA co-injected with Orco cRNA into Xenopus laevis oocytes; with Odorant receptor coreceptor
# Assay: two-electrode voltage clamp, Xenopus oocytes
# Format: cell-based, Helicoverpa assulta
# Settings: co-expressed with Orco; agonist; holding potential −80 mV; 1 × 10^−7 to 1 × 10^−3 M
smiles,measurement,value
CCCCCCCCC=O [nonanal],EC50,8.49 µM
